Test results: publication PMC7486443, “Generation of Phenothiazine with Potent Anti-TLK1 Activity for Prostate Cancer Therapy” (iScience, 2020)

How the values were obtained:
Experiment in all cases: biochemical
Set-up in all cases: DiscoverX KINOMEscan scanMAX competition binding panel, single concentration, percent of control; remaining binding: dose or concentration left out as unconfirmed
Conditions in all cases: KINOMEscan binding, percent of control; read-out: Table S4_SCANMAX REPORT - related to Fig. 1 / Percent Control
FLT3(ITD,D835V) = FLT3(ITD,D835V) (Homo sapiens, UniProt P36888, D835V/ITD)
PIK4CB = biological target: T1, PIK4CB (Homo sapiens, UniProt Q9UBF8)
T1 construct: gene PI4KB

[1] = biological target: T2, TYK2(JH2domain-pseudokinase) (Homo sapiens, UniProt P29597)
T2 construct: JH2domain-pseudokinase

[2] = biological target: T3, RSK1(Kin.Dom.2-C-terminal) (Homo sapiens, UniProt Q15418)
T3 construct: gene RPS6KA1; Kin.Dom.2-C-terminal

ULK1 = ULK1 (Homo sapiens, UniProt O75385)
ZAK = biological target: T4, ZAK (Homo sapiens, UniProt Q9NYL2)
T4 construct: gene MAP3K20

NIK = biological target: T5, NIK (Homo sapiens, UniProt Q99558)
T5 construct: gene MAP3K14

YANK1 = biological target: T6, YANK1 (Homo sapiens, UniProt Q8WU08)
T6 construct: gene STK32A
T6 sequence (Q8WU08 whole entry): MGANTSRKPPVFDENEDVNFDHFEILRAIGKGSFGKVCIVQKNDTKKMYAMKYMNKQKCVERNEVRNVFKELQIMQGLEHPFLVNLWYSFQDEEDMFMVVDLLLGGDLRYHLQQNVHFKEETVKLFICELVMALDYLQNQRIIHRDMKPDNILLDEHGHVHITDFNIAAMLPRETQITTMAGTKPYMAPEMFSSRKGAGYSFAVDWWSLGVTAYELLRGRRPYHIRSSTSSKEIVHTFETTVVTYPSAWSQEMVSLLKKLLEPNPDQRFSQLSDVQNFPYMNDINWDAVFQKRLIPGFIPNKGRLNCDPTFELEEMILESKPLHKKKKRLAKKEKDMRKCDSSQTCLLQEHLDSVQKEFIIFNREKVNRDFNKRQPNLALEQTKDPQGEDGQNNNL

T4 sequence (Q9NYL2 whole entry): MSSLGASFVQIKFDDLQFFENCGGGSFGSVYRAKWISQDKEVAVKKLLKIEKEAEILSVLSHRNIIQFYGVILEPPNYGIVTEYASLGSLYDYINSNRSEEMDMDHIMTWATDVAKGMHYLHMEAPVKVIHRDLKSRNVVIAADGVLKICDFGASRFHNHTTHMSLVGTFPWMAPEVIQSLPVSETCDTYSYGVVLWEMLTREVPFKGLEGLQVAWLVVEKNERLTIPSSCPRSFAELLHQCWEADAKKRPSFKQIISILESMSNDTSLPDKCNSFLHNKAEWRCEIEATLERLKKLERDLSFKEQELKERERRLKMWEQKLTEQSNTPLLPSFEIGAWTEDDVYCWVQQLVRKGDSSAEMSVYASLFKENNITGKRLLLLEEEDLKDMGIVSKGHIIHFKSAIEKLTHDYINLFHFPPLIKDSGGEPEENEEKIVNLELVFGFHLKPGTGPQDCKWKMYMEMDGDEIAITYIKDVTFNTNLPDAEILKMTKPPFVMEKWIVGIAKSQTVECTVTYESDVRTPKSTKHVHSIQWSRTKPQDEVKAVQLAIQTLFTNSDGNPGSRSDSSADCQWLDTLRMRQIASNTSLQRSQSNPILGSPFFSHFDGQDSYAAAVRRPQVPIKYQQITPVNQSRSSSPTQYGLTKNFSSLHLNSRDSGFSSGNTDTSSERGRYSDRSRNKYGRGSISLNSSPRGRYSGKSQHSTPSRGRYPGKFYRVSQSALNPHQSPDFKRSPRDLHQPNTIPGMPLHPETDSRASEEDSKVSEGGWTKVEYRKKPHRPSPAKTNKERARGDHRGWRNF
Chain of ULK1 (O75385 whole entry): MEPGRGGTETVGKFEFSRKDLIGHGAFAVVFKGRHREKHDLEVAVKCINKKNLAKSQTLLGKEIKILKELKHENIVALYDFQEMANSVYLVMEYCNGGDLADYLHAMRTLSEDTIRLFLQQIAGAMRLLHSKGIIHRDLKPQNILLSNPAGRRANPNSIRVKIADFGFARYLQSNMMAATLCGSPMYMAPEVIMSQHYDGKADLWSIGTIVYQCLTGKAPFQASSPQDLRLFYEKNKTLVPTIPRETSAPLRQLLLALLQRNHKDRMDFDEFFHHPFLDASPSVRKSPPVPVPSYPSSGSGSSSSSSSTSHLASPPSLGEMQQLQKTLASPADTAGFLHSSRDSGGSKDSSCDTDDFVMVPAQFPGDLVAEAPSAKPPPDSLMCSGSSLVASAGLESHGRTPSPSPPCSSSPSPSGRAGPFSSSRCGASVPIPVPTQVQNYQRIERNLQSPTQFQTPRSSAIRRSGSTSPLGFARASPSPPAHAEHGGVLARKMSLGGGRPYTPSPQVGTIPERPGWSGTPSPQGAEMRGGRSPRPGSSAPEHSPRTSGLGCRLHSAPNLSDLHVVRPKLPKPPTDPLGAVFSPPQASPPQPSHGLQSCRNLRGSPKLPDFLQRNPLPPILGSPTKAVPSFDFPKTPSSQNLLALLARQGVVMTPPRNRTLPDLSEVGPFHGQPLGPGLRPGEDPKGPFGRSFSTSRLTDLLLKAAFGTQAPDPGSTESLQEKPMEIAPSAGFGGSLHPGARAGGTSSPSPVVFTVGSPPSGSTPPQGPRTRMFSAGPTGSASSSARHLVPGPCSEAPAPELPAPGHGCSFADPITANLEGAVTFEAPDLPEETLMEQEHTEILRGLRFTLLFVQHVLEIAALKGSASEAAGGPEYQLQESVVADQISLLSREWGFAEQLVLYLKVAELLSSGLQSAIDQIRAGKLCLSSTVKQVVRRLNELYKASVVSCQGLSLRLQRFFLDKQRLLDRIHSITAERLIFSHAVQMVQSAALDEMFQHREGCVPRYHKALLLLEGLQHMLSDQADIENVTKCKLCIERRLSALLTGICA
T5 sequence (Q99558 whole entry): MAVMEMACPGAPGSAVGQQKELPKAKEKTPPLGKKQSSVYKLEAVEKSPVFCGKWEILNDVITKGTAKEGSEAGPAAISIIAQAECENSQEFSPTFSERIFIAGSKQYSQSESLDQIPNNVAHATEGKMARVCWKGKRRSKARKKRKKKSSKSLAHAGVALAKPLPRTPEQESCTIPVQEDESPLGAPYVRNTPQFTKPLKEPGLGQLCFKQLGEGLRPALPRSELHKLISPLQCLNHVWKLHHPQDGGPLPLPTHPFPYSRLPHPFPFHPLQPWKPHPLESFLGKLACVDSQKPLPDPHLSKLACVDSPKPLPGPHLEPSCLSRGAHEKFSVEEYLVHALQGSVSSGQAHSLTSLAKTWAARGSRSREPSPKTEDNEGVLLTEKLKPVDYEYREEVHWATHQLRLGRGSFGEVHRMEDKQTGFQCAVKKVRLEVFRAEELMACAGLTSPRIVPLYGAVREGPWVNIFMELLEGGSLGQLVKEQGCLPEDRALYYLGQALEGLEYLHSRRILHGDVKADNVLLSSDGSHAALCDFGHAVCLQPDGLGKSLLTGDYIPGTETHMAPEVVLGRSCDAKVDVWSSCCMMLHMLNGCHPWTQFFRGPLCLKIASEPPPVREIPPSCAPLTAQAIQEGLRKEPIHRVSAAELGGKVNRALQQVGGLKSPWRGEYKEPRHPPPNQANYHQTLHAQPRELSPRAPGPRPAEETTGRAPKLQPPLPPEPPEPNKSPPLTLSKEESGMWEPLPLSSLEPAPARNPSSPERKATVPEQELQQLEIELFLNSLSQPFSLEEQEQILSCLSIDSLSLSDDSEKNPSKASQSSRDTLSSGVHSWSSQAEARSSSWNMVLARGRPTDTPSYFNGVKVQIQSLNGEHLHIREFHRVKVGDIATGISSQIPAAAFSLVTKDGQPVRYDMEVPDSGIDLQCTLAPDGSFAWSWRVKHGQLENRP
T1 sequence (Q9UBF8 whole entry): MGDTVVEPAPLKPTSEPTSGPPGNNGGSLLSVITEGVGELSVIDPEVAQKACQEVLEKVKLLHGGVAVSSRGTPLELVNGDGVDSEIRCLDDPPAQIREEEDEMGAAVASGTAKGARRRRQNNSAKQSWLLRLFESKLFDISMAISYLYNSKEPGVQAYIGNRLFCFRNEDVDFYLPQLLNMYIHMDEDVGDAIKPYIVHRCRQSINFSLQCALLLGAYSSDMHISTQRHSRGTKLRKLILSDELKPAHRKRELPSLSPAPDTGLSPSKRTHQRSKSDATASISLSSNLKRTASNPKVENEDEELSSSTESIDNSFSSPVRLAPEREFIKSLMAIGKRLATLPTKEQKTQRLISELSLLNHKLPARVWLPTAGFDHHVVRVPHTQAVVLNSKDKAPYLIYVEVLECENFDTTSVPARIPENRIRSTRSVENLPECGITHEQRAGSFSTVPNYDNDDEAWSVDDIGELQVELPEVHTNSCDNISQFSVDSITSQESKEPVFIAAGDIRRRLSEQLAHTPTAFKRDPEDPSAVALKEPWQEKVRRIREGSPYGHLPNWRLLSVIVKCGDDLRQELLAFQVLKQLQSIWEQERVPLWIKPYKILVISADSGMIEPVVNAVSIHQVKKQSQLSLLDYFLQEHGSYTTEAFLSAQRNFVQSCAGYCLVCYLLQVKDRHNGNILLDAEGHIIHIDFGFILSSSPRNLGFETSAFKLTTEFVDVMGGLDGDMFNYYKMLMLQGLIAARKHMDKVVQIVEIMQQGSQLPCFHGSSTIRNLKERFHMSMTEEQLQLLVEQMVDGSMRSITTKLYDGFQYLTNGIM
T3 sequence (Q15418 whole entry): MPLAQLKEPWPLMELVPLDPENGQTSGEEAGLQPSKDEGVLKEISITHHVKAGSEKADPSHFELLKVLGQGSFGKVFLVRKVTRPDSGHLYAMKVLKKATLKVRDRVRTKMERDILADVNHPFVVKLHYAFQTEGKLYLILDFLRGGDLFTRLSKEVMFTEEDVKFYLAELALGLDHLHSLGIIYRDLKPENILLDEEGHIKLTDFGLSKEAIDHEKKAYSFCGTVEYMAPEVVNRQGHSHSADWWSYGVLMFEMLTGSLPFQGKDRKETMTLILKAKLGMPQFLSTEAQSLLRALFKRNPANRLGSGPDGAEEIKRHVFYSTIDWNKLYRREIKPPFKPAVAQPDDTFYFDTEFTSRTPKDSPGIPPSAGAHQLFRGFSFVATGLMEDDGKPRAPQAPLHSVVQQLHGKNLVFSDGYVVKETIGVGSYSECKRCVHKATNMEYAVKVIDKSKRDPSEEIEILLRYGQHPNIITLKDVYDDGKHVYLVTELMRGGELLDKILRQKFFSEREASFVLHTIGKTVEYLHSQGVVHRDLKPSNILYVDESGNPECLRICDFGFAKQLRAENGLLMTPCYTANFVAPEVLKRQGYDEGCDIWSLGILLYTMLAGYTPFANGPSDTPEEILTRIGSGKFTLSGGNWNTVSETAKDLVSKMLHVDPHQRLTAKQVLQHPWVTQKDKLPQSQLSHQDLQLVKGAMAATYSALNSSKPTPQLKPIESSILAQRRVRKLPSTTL

Structure (SMILES): c1ccc2c(c1)Sc1ccccc1N2CCN1CCOCC1 [J54]
- remaining binding (FLT3(ITD,D835V)): 57%
- remaining binding (PIK4CB): 100%
- remaining binding [1]: 100%
- remaining binding [2]: 100%
- remaining binding (ULK1): 99%
- remaining binding (ZAK): 85%
- remaining binding (NIK): 100%
- remaining binding (YANK1): 91%
